The text below walks through data of US20250114326A1, “POLAR MARINE-DERIVED MACROCYCLIC LACTAM COMPOUND, AND PREPARATION METHOD THEREFOR AND USE THEREOF” (RENJI HOSPITAL, SCHOOL OF MEDICINE, SHANGHAI JIAO TONG …, priority 2021, published 2025).

Read-outs that look alike come from different tables or passages of the source.

The assay deals with inflammatory cytokine IL-6. Put plainly: Inhibition of cytokine IL-6 in PMA-differentiated, LPS-treated THP-1 cells (Cytometric Bead Array, flow cytometry). In kind it is cell-based, human. Particulars: PMA 160 nM 36 h, compound 2 h then LPS 24 h, IL-6 in culture solution by CBA, read-out: Half maximal inhibitory concentration (IC50) value on inflammatory cytokine IL-6. On the procedure:
Culture of THP-1 cells and treatment of THP-1 cells with test compounds in combination with LPS
THP-1 cells (from the Cell Bank of the Chinese Academy of Sciences) were cultured in RPMI-1640 medium containing 10% FBS in a 5% CO2 incubator at 37° C. 100 μL of a cell suspension in a complete culture medium containing antibiotics (100 μg/mL streptomycin and 100 U/mL penicillin) and PMA (final concentration: 160 nM) was added to each well in a 96-well plate (about 5×10^4 cells/well). After 36 h of treatment, the cells achieved adherent growth.
The PMA-containing medium was discarded and then the cells were washed with 1×PBS solution. Serum-free RPMI-1640 (2 mL) was added and the cells were treated for 12 h. The active compounds to be tested were diluted into five concentration gradients and added to each well for a 2-hour treatment. The culture solutions containing the compounds were retained and the cells were treated with a serum-free medium ([…]) containing LPS (1 mg/mL) for 24 h.
The content assay for cytokine IL-6 in the culture solution was performed according to the Human Inflammation Cytometric Bead Array (CBA) method in the manufacturer's instructions. After the above-mentioned cytokine levels were determined on the FACSCalibur flow cytometer, the FCAP Array software was used to analyze the results.
For orientation: In flow cytometry, cells or beads pass a laser one at a time.

As for `CC[C@H](C)C[C@]1(O)C(=O)C[C@@H](O)[C@@]2(C)C=C(C)[C@H](O2)/C(C)=C/C(C)=C/C[C@@H](CO)OC(=O)[C@H](OC)[C@@H](O)CNC1=O` [Compound 1, Somalactam A], the IC50 (Homo sapiens) was 10.54 ± 0.06 µM.

Consider `CC[C@H](C)C[C@@]1(O)C(=O)NC[C@H](O)[C@@H](OC)C(=O)OC[C@@H](O)C/C=C(\C)[C@H]2C(C)=C[C@]3(C)O[C@@H]4C[C@@]1(O)O[C@]4(C)[C@H]23` [Compound 2, Somalactam B], for which, under “Homo sapiens”, the IC50 is 11.1 ± 0.13 µM. In the case of `CC[C@H](C)C[C@@]1(O)C(=O)NC[C@H](O)[C@@H](OC)C(=O)O[C@H](CO)C/C=C(\C)[C@@H]2C(C)=C[C@@]3(C)O[C@@H]4C[C@@]1(O)O[C@]4(C)[C@@H]23` [Compound 3, Somalactam C], for the setting “Homo sapiens”, the IC50 amounted to 5.76 ± 1.18 µM. As to `CC[C@H](C)C[C@@]1(O)C(=O)NC[C@H](O)[C@@H](OC)C(=O)O[C@@H]2CO[C@]3(C)C=C(C)[C@@H](/C(C)=C/[C@@]4(C)O[C@]1(O)C[C@H]4O)[C@@H]3C2` [Compound 4, Somalactam D], under “Homo sapiens”, the IC50 was determined as 9.12 ± 0.15 µM. On to Tocilizumab [reference compound], for which the IC50 worked out at 9.22 ± 0.12 µM. In addition, the IC50 (listed as control drug) is 6.02 ± 0.12 µM.
